Measurements as given in publication PMC3160846 (PLoS ONE, 2011).

How the values were obtained:
Type in all cases: cell-based, Human
[1] = tested on: HONE-1 cells; experiment: Clonogenic assay, HONE-1
Protocol: (§1) Human lung adenocarcinoma A549 cells and NTUB1 bladder cancer cells were maintained in RPMI supplied with 10% fetal bovine serum. […] KB-derived MRP1-expressing cell line, KB-7D, was maintained in growth medium supplemented with 7 µM VP-16.
(§2) Two hundred cells in logarithmic growth phase were seeded in a 6-well plate. The cells were exposed to various concentrations of the test drugs for a three-generation period. At the end of the incubation period, cells were fixed and stained with 50% ethanol containing 0.5% methylene blue for 30 min. The plates were washed five times with water and allowed to air-dry. Colonies were countered manually. […] Each value represents the average of at least three independent experiments run in triplicates.

[2] = tested on: NTU0.017 cells; experiment: Clonogenic assay, NTU0.017
Protocol: as §1, §2

[3] = tested on: KB-VIN10 cells; experiment: Clonogenic assay, KB-VIN10
Protocol: as §1, §2

[4] = tested on: MV4-11 cells; experiment: Clonogenic assay, MV4-11
Protocol: as §1, §2

[5] = tested on: KB cells; experiment: Clonogenic assay, KB
Protocol: as §1, §2

[6] = tested on: A549 cells; experiment: Clonogenic assay, A549
Protocol: as §1, §2

[7] = tested on: IM9 cells; experiment: Clonogenic assay, IM9
Protocol: as §1, §2

[8] = tested on: HT29 cells; experiment: Clonogenic assay, HT29
Protocol: as §1, §2

[9] = tested on: OECM-1 cells; experiment: Clonogenic assay, OECM-1
Protocol: as §1, §2

[10] = tested on: KB-S15 cells; experiment: Clonogenic assay, KB-S15
Protocol: as §1, §2

[11] = tested on: NTUB1 cells; experiment: Clonogenic assay, NTUB1
Protocol: as §1, §2

Fold difference as compare to the IC50 of BPR1K653 ([1]; HONE-1): 5 fold
IC50 ([3]; Homo sapiens, KB-VIN10, vincristine resistant, MDR1 ↑, read-out: IC50, anti-proliferative activity): > 25000 nM
IC50 ([4]; Homo sapiens, MV4-11, leukemia, p53 mutant, MDR1 negative, read-out: IC50, anti-proliferative activity): 86 ± 11 nM
Fold difference as compare to the IC50 of BPR1K653 ([4]; MV4-11): 17 fold
Fold difference as compare to the IC50 of BPR1K653 [5]: 33 fold
Fold difference as compare to the IC50 of BPR1K653 ([6]; A549): 6 fold
IC50 ([6]; Homo sapiens, A549, lung, p53 wild-type, MDR1 negative, read-out: IC50, anti-proliferative activity): 56 ± 8 nM
Fold difference as compare to the IC50 of BPR1K653 ([7]; IM9): 113 fold
Fold difference as compare to the IC50 of BPR1K653 ([8]; HT29): 4 fold
IC50 ([8]; Homo sapiens, HT-29, HT29, colon, p53 mutant, MDR1 negative, read-out: IC50, anti-proliferative activity): 48 ± 8 nM
Fold difference as compare to the IC50 of BPR1K653 ([9]; OECM-1): 5 fold
IC50 ([10]; Homo sapiens, KB-S15, paclitaxol resistant, MDR1 ↑, read-out: IC50, anti-proliferative activity): 4700 nM
Fold difference as compare to the IC50 of BPR1K653 ([11]; NTUB1): 51 fold
Structure (SMILES): CO[C@@H](C(=O)N1Cc2n[nH]c(NC(=O)c3ccc(N4CCN(C)CC4)cc3)c2C1)c1ccccc1 [PHA-739358]
IC50 ([1]; Homo sapiens, HONE1, HONE-1, oral, p53 mutant, MDR1 negative, read-out: IC50, anti-proliferative activity): 59 ± 16 nM
IC50 ([2]; Homo sapiens, NTU0.017, paclitaxol resistant, MDR1 ↑, read-out: IC50, anti-proliferative activity): > 50000 nM
Fold difference as compare to the IC50 in the respective parental cells ([2]; NTU0.017 vs NTUB1): > 123 fold
Fold difference as compare to the IC50 in the respective parental cells ([3]; KB-VIN10 vs KB): > 63 fold
IC50 ([5]; Homo sapiens, cervical, p53 wild-type, MDR1 negative (parental), read-out: IC50, anti-proliferative activity): 400 ± 100 nM
IC50 ([7]; Homo sapiens, IM9, lymphoma, p53 wild-type, MDR1 negative, read-out: IC50, anti-proliferative activity): 450 ± 12 nM
IC50 ([9]; Homo sapiens, OECM1, OECM-1, oral, p53 mutant, MDR1 negative, read-out: IC50, anti-proliferative activity): 642 ± 68 nM
Fold difference as compare to the IC50 in the respective parental cells ([10]; KB-S15 vs KB): 12 fold
IC50 ([11]; Homo sapiens, NTUB1, bladder, MDR1 negative (parental), read-out: IC50, anti-proliferative activity): 405 ± 134 nM
